System: chondrocytes
Assay: Extracellular and intracellular PPi elaboration
Format: cell-based, human
Conditions: for ability of TGFβ to increase extracellular and intracellular PPi: TGFβ 10 ng/ml; for basal PPi elaboration: absence of TGFβ
Protocol: One set of experiments described in this Example and presented in FIG. 4 examined the effects of agents that inhibit mitochondrial function on PPi elaboration in the absence of TGFβ. Chondrocytes (primary cultures and immortalized cell line TC-28) were prepared, cultured and treated with oligomycin (FIG. 4A), or with antimycin A (FIG. 4B), as in the preceding Examples. Extracellular PPi was determined radiometrically, and equalized for cellular DNA, according to the method of Terkeltaub et al. (Arthritis Rheum. 41:2152–2164, 1998). To determine intracellular PPi levels, washed cells were heated at 65° C. for 45 minutes, washed again and lysed in lysis buffer (1% Triton X-100, 1.6 mM MgCl2, 0.2 M Tris, pH 8.1), essentially according to the procedures described by Lotz et al. (Proc. Natl. Acad. Sci. U.S.A. 92:10364–10368, 1995).
Another set of experiments examined the ability of inhibitors of mitochondrial function to impact the ability of TGFβ to increase intracellular and extracellular PPi levels. Antimycin A- (FIG. 4B) or oligomycin-treated (FIG. 4A) chondrocytes, as well as control (untreated) cells, prepared as described in the preceding Examples, were incubated with or without TGFβ (10 ng/ml), and levels of extracellular and intracellular PPi levels were determined.

| Molecule | ability of TGFβ to increase extracellular and intracellular PPi | basal PPi elaboration |
| --- | --- | --- |
| CC[C@H]1/C=C/C=C/C[C@@H](C)[C@H](O)[C@@](C)(O)C(=O)[C@@H](C)[C@H](O)[C@@H](C)C(=O)[C@@H](C)[C@H](O)[C@@H](C)/C=C/C(=O)O[C@@H]2[C@H](C)[C@H](CC1)O[C@]1(CC[C@H](C)[C@H](C[C@@H](C)O)O1)[C@H]2C [oligomycin] | abrogated the ability of TGFβ to increase extracellular and intracellular PPi | attenuated basal PPi elaboration |
| antimycin A | abrogated the ability of TGFβ to increase extracellular and intracellular PPi | attenuated basal PPi elaboration |
